Where a name gives a salt, the structure may show the parent alone. Read-outs that look alike come from different tables or passages of the source.
Tests used:
[1] = tested on: HCT116 cell line; assay: Anti-proliferative activity, Alamar Blue assay; assay type: cell-based, human
Experimental: The anti-proliferative activities of compounds of the invention can be determined by measuring the ability of the compounds to inhibition of cell growth in a number of cell lines such as the human colon cancer cell line HCT116. […] The method is based on the ability of viable cells to reduce resazurin to its fluorescent product resorufin. […] The number of viable cells is determined by Alamar Blue assay as before. Cell lines can be obtained from the ECACC (European Collection of cell Cultures).

[2] = molecular target: T1, human Hsp90α N-terminal domain (Homo sapiens, UniProt P07900); assay: Isothermal titration calorimetry (ITC) binding; settings: 25 mM Tris, 100 mM NaCl, 1 mM MgCl2, 1 mM TCEP, 5% DMSO, pH 7.4
T1 construct: Cloning, expression, and purification of the Human Hsp90α N-terminal domain were performed according to published methods; made in house
Experimental: The ability of the compounds of the invention to bind to human Hsp90 proteins was determined using isothermal titration calorimetry.
Isothermal titration calorimetry (ITC) experiments were performed with a VP-ITC titration calorimeter (Microcal Inc., Northampton, Mass., USA). […] All solutions were filtered and degassed prior to a titration being carried out. The enthalpy change resulting from each injection of ligand was obtained through integration of the calorimetric signal. Data were analysed using Origin 7.0 (Microcal Software Inc., Northampton, Mass.). Heats of dilution were estimated using the final injections of each individual titration and subtracted before data fitting. Different ITC experimental formats were employed in order to obtain compound dissociation constants (Kd's) over a wide range of affinities. […] In this type of experiment the stoichiometry parameter (N) was locked at 1 for data fitting. […] For the majority of these experiments the protein concentration in the calorimetric cell was in the range […] and the ligand concentration in the injection syringe ranged from […].

[3] = HCT-116, human colon cancer cell line HCT116, 72 hours with compound, read-out: IC50

SMILES | Kd [2] [µM] | IC50 [1, 3] [µM] | IC50 ([1]; Homo sapiens, HCT-116, 72 h) [µM]
CC(C)c1cc(C(=O)N2Cc3ccccc3C2)c(O)cc1O [Example 5] | – | – | < 1
CC(C)c1cc(C(=O)N2Cc3ccccc3C2)ccc1O [Example 10, (1,3-Dihydro-isoindol-2-yl)-(4-hydroxy-3-isopropyl-phenyl)-methanone] | < 0.1 | – | –
CC(C)(C)c1cc(C(=O)N2CCc3ccccc3C2)ccc1O [Example 11, (3-tert-Butyl-4-hydroxy-phenyl)-(3,4-dihydro-1H-isoquinolin-2-yl)-methanone] | < 1 | – | –
O=C(c1cc(Br)c(O)cc1O)N1Cc2ccccc2C1 [Example 19, (5-Bromo-2,4-dihydroxy-phenyl)-(1,3-dihydro-isoindol-2-yl)-methanone] | – | < 1 | –
COCCOCCOc1cccc2c1CN(C(=O)c1cc(C(C)C)c(O)cc1O)C2 [Example 21, (2,4-Dihydroxy-5-isopropyl-phenyl)-{4-[2-(2-methoxy-ethoxy)-ethoxy]-1,3-dihydro-isoindol-2-yl}methanone] | < 0.1 | < 1 | –
CC(C)c1cc(C(=O)N2CC3CC2CO3)c(O)cc1O (stereo not shown) [Example 37, (2,4-dihydroxy-5-isopropyl-phenyl)-(2-oxa-5-aza-bicyclo[2.2.1]hept-5-yl)-methanone] | < 0.1 | < 1 | –
CC(C)c1cc(C(=O)N2Cc3ccc(N4CCC(N5CCN(C)CC5)CC4)cc3C2)c(O)cc1O [Example 51, (2,4-dihydroxy-5-isopropyl-phenyl)-{5-[4-(4-methyl-piperazin-1-yl)-piperidin-1-yl]-1,3-dihydro-isoindol-2-yl}-methanone] | < 0.1 | < 1 | –
CC(C)c1cc(C(=O)N2Cc3ccc(-c4ccc(N5CCNCC5)cc4)cc3C2)c(O)cc1O [Example 52, (2,4-dihydroxy-5-isopropyl-phenyl)-[5-(4-piperazin-1-yl-phenyl)-1,3-dihydro-isoindol-2-yl]-methanone] | < 1 | < 1 | –
CC(C)c1cc(C(=O)N2Cc3ccc(C(=O)N4CCNCC4)cc3C2)c(O)cc1O [Example 54, (2,4-dihydroxy-5-isopropyl-phenyl)-[5-(piperazine-1-carbonyl)-1,3-dihydro-isoindol-2-yl]-methanone hydrochloride] | < 0.1 | – | < 1
CC(C)c1cc(C(=O)N2Cc3ccc(N4CCC(N5CCOCC5)CC4)cc3C2)c(O)cc1O [Example 60, (2,4-Dihydroxy-5-isopropyl-phenyl)-[5-(4-morpholin-4-yl-piperidin-1-yl)-1,3-dihydro-isoindol-2-yl]-methanone] | < 0.1 | < 1 | –
CC(C)c1cc(C(=O)N2Cc3cccc(NC4CCNCC4)c3C2)c(O)cc1O [Example 67, (2,4-dihydroxy-5-isopropyl-phenyl)-[4-(piperidin-4-ylamino)-1,3-dihydro-isoindol-2-yl]-methanone] | < 0.1 | < 1 | –
CN1CCN(c2ccc3c(c2)CN(C(=O)c2cc(Cl)c(O)cc2O)C3)CC1 [Example 75, (5-Chloro-2,4-dihydroxy-phenyl)-[5-(4-methyl-piperazin-1-yl)-1,3-dihydro-isoindol-2-yl]-methanone] | < 0.1 | < 1 | –

Continued, in another order:

Kd [2] [µM] | IC50 [1, 3] [µM] | SMILES | IC50 ([1]; Homo sapiens, HCT-116, 72 h) [µM]
< 0.1 | < 1 | COc1cc2c(cc1Cl)CN(C(=O)c1cc(C(C)C)c(O)cc1O)C2 [Example 33, (5-chloro-6-methoxy-1,3-dihydro-iso-indol-2-yl)-(2,4-dihydroxy-5-isopropyl-phenyl)-methanone] | –
< 0.1 | < 1 | CC(C)c1cc(C(=O)N2CCc3ccccc3C2)c(O)cc1O [Example 38, (3,4-dihydro-1H-isoquinolin-2-yl)-(2,4-dihydroxy-5-isopropyl-phenyl)-methanone] | –
< 0.1 | < 1 | CC(C)c1cc(C(=O)N2Cc3ccc(N)cc3C2)c(O)cc1O [Example 39, (5-amino-1,3-dihydro-isoindol-2-yl)-(2,4-dihydroxy-5-isopropyl-phenyl)-methanone] | –
< 0.1 | < 1 | COc1ccc2c(c1)CN(C(=O)c1cc(C(C)C)c(O)cc1O)C2 [Example 40, (2,4-dihydroxy-5-isopropyl-phenyl)-(5-methoxy-1,3-dihydro-isoindol-2-yl)-methanone] | –
< 0.1 | < 1 | COC(=O)c1ccc2c(c1)CN(C(=O)c1cc(C(C)C)c(O)cc1O)C2 [Example 43, 2-(2,4-dihydroxy-5-isopropyl-benzoyl)-2,3-dihydro-1H-isoindole-5-carboxylic acid methyl ester] | –
< 0.1 | – | CC(C)c1cc(C(=O)N2Cc3ccc(C(=O)O)cc3C2)c(O)cc1O [Example 44, 2-(2,4-dihydroxy-5-isopropyl-benzoyl)-2,3-dihydro-1H-isoindole-5-carboxylic acid] | –
< 0.1 | < 1 | CC(C)NCCOc1ccc2c(c1)CN(C(=O)c1cc(C(C)C)c(O)cc1O)C2 [Example 48, (2,4-dihydroxy-5-isopropyl-phenyl)-[5-(2-isopropylamino-ethoxy)-1,3-dihydro-isoindol-2-yl]-methanone] | –
< 0.1 | < 1 | CC(C)c1cc(C(=O)N2Cc3ccc(OCCNC(=O)CN4CCOCC4)cc3C2)c(O)cc1O [Example 49] | –
< 0.1 | < 1 | CC(C)c1cc(C(=O)N2Cc3ccc(CN4CCN(C)CC4)cc3C2)c(O)cc1O [Example 55, (2,4-dihydroxy-5-isopropyl-phenyl)-[5-(4-methyl-piperazin-1-ylmethyl)-1,3-dihydro-isoindol-2-yl]-methanone] | –
< 0.1 | < 1 | CC(C)c1cc(C(=O)N2Cc3ccc(N4CCN(CCO)CC4)cc3C2)c(O)cc1O [Example 59, (2,4-Dihydroxy-5-isopropyl-phenyl)-{5-[4-(2-hydroxy-ethyl)-piperazin-1-yl]-1,3-dihydro-isoindol-2-yl}-methanone] | –
< 0.1 | < 1 | CC(C)c1cc(C(=O)N2Cc3ccc(N4CCN(C(C)C)CC4)cc3C2)c(O)cc1O [Example 62, (2,4-Dihydroxy-5-isopropyl-phenyl)-[5-(4-isopropyl-piperazin-1-yl)-1,3-dihydro-isoindol-2-yl]-methanone] | –
< 0.1 | < 1 | CC(C)c1cc(C(=O)N2Cc3ccc(CN4CCCCC4)cc3C2)c(O)cc1O [Example 72, (2,4-Dihydroxy-5-isopropyl-phenyl)-(5-piperidin-1-ylmethyl-1,3-dihydro-isoindol-2-yl)-methanone] | –
< 0.1 | – | CC(C)c1cc(C(=O)N2Cc3ccc(C4(O)CCNCC4)cc3C2)c(O)cc1O [Example 73, (2,4-Dihydroxy-5-isopropyl-phenyl)-[5-(4-hydroxypiperidin-4-yl)-1,3-dihydro-isoindol-2-yl]-methanone] | –
< 0.1 | < 1 | CC(C)c1cc(C(=O)N2Cc3cc(O)c(Cl)cc3C2)c(O)cc1O [Example 74, (5-chloro-6-hydroxy-1,3-dihydro-isoindol-dihydroxy-5-isopropyl-phenyl)-methanone] | –

— patent US8101648B2, “Hydroxybenzamide derivatives and their use as inhibitors of HSP90” (Astex Therapeutics, Ltd., priority 2005, dated 2012)
